Laboratory results reported in ChEMBL document CHEMBL4842322, “A naphthalimide-polyamine conjugate preferentially accumulates in hepatic carcinoma metastases as a lysosome-targeted antimetastatic agent” (Eur J Med Chem, 2021).

Columns and labels:
Type in all cases: functional, cell-based
HepG2 = experiment: Cytotoxicity against human HepG2 cells assessed as inhibition of cell growth incubated for 48 hrs by MTT assay; conditions: HepG2, 48 h
Huh-7 = experiment: Cytotoxicity against human Huh-7 cells assessed as inhibition of cell growth incubated for 48 hrs by MTT assay; conditions: Huh-7, 48 h
MDA-MB-231 = experiment: Cytotoxicity against human MDA-MB-231 cells assessed as inhibition of cell growth incubated for 48 hrs by MTT assay; conditions: MDA-MB-231, 48 h
MCF7 = experiment: Cytotoxicity against human MCF7 cells assessed as inhibition of cell growth incubated for 48 hrs by MTT assay; conditions: MCF7, 48 h
A549 [1] = experiment: Cytotoxicity against human A549 cells assessed as inhibition of cell growth incubated for 48 hrs by MTT assay; conditions: A549, 48 h
A549 [2] = experiment: Cytotoxicity against cisplatin-resistant human A549 cells assessed as inhibition of cell growth incubated for 48 hrs by MTT assay; conditions: A549, 48 h

SMILES	IC50 (HepG2)	IC50 (Huh-7)	IC50 (MDA-MB-231)	IC50 (MCF7)	IC50 (A549 [1])	IC50 (A549 [2])
CCCNCCCNCCCN1C(=O)c2cccc3cc(NC(=O)CN)cc(c23)C1=O	> 30 µM	7.54 µM	> 30 µM	> 30 µM	> 30 µM	> 30 µM
CCCNCCCNCCCNCCCN1C(=O)c2cccc3c(NC(=O)CN)ccc(c23)C1=O	> 30 µM	5.39 µM	> 30 µM	> 30 µM	> 30 µM	> 30 µM
